# Measurements published in patent US8952024B2, “Herbicidal pyrimidone derivatives” (E I du Pont de Nemours and Company, priority 2009, dated 2015).
# Key:
# Type in all cases: in vivo
# [1] = system: barnyardgrass (Echinochloa crus-galli); assay: Test B flooded paddy test; settings: for Plant response rating, Flood, Barnyardgrass: 250 g ai/ha, flooded paddy test, visual rating on 0 to 100 scale (0 no effect, 100 complete control) after 13 to 15 days; for Plant response rating, Barnyardgrass: Flood (flooded paddy test), 13 to 15 days
# Summary of the method: (§1)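 Greenhouse-held for 13 to 15 days, treated pots were compared visually with controls and scored 0–100 (0, no effect). Treatment had been made into paddy water kept at 3 cm above the soil, with plants at the 2-leaf stage.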
# rice (Oryza sativa) = assay: Test B flooded paddy test; settings: for Plant response rating, Flood, Rice: 250 g ai/ha, flooded paddy test, visual rating on 0 to 100 scale (0 no effect, 100 complete control) after 13 to 15 days; for Plant response rating, Rice: Flood (flooded paddy test), 13 to 15 days
# Summary of the method: as §1
# [2] = system: umbrella sedge (Cyperus difformis); assay: Test B flooded paddy test; settings: for Plant response rating, Flood, Sedge, Umbrella: 250 g ai/ha, flooded paddy test, visual rating on 0 to 100 scale (0 no effect, 100 complete control) after 13 to 15 days; for Plant response rating, Sedge, Umbrella: Flood (flooded paddy test), 13 to 15 days
# Summary of the method: as §1
# [3] = system: ducksalad (Heteranthera limosa); assay: Test B flooded paddy test; settings: for Plant response rating, Flood, Ducksalad: 250 g ai/ha, flooded paddy test, visual rating on 0 to 100 scale (0 no effect, 100 complete control) after 13 to 15 days; for Plant response rating, Ducksalad: Flood (flooded paddy test), 13 to 15 days
# Summary of the method: as §1
# corn (Zea mays) = assay: Test A pre-/postemergence plant response
# Source text: (§2) Seeds of barnyardgrass (Echinochloa crus-galli), large crabgrass (Digitaria sanguinalis), giant foxtail (Setaria faberii), morningglory (Ipomoea spp.), pigweed (Amaranthus retroflexus), velvetleaf (Abutilon theophrasti), wheat (Triticum aestivum) and corn (Zea mays) were planted into a blend of loam soil and sand and treated preemergence with a directed soil spray using test chemicals formulated in a non-phytotoxic solvent mixture which included a surfactant. At the same time these species were also treated with postemergence applications of test compounds formulated in the same manner.
# (§3) Plants ranged in height from two to ten cm and were in the one- to two-leaf stage for the postemergence treatment. Treated plants and untreated controls were maintained in a greenhouse for approximately ten days, after which time all treated plants were compared to untreated controls and visually evaluated for injury. Plant response ratings, summarized in Table A, are based on a 0 to 100 scale where 0 is no effect and 100 is complete control. A dash (-) response means no test result.
# [4] = system: velvetleaf (Abutilon theophrasti); assay: Test A pre-/postemergence plant response
# Source text: as §2, §3
# [5] = system: giant foxtail (Setaria faberii); assay: Test A pre-/postemergence plant response
# Source text: as §2, §3
# [6] = system: barnyardgrass (Echinochloa crus-galli); assay: Test A pre-/postemergence plant response
# Source text: as §2, §3
# [7] = system: wheat (Triticum aestivum); assay: Test A pre-/postemergence plant response
# Source text: as §2, §3
# [8] = system: large crabgrass (Digitaria sanguinalis); assay: Test A pre-/postemergence plant response
# Source text: as §2, §3
# [9] = system: morningglory (Ipomoea spp.); assay: Test A pre-/postemergence plant response
# Source text: as §2, §3
# [10] = system: pigweed (Amaranthus retroflexus); assay: Test A pre-/postemergence plant response
# Source text: as §2, §3
# [11] = 62 g ai/ha, scale of 0 to 100 where 0 is no effect and 100 is complete control
# [12] = 125 g ai/ha, scale 0 to 100, 0 is no effect, 100 is complete control
# [13] = Flood, 31 g ai/ha, scale 0 to 100 (0 no effect, 100 complete control)
# [14] = Postemergence, 125 g ai/ha, 0 to 100 scale where 0 is no effect and 100 is complete control
# [15] = Postemergence, 500 g ai/ha, 0 to 100 scale, 0 = no effect, 100 = complete control, approx. ten days
# [16] = Preemergence, 125 g ai/ha, 0 to 100 scale, 0 = no effect, 100 = complete control
# [17] = Preemergence, 500 g ai/ha, visual injury, 0 to 100 scale (0 no effect, 100 complete control), approx. ten days
smiles,measurement,setting,value
CCCn1c(-c2ccco2)ncc(C(=O)C2=C(O)CCCC2=O)c1=O [Compound 110],"Plant response rating, Flood, Barnyardgrass",[1],40
same,"Plant response rating, Barnyardgrass",[1]; [11],0
same,"Plant response rating, Barnyardgrass",[1]; [12],20
same,Barnyardgrass plant response rating,[1]; [13],0
same,"Plant response rating, Flood, Rice",rice (Oryza sativa),30
same,"Plant response rating, Rice",rice (Oryza sativa); [11],0
same,"Plant response rating, Rice",rice (Oryza sativa); [12],30
same,Rice plant response rating,rice (Oryza sativa); [13],0
same,"Plant response rating, Flood, Sedge, Umbrella",[2],75
same,"Plant response rating, Sedge, Umbrella",[2]; [11],35
same,"Plant response rating, Sedge, Umbrella",[2]; [12],50
same,"Sedge, Umbrella plant response rating",[2]; [13],30
same,"Plant response rating, Flood, Ducksalad",[3],75
same,"Plant response rating, Ducksalad",[3]; [11],40
same,"Plant response rating, Ducksalad",[3]; [12],75
same,Ducksalad plant response rating,[3]; [13],0
same,"Plant response rating, Corn",corn (Zea mays); [14],0
same,"Plant response rating, Corn",corn (Zea mays); [15],10
same,"Plant response rating, Corn",corn (Zea mays); [16],0
same,"Plant response rating, Corn",corn (Zea mays); [17],0
same,"Plant response rating, Velvetleaf",[4]; [14],90
same,"Plant response rating, Velvetleaf",[4]; [15],100
same,"Plant response rating, Velvetleaf",[4]; [16],60
same,"Plant response rating, Velvetleaf",[4]; [17],70
same,"Plant response rating, Foxtail, Giant",[5]; [14],10
same,"Plant response rating, Foxtail, Giant",[5]; [15],50
same,"Plant response rating, Foxtail, Giant",[5]; [16],0
same,"Plant response rating, Foxtail, Giant",[5]; [17],10
same,"Plant response rating, Barnyardgrass",[6]; [14],60
same,"Plant response rating, Barnyardgrass",[6]; [15],90
same,"Plant response rating, Barnyardgrass",[6]; [16],20
same,"Plant response rating, Barnyardgrass",[6]; [17],60
same,"Plant response rating, Wheat",[7]; [14],0
same,"Plant response rating, Wheat",[7]; [15],0
same,"Plant response rating, Wheat",[7]; [16],0
same,"Plant response rating, Wheat",[7]; [17],0
same,"Plant response rating, Crabgrass, Large",[8]; [14],80
same,"Plant response rating, Crabgrass, Large",[8]; [15],90
same,"Plant response rating, Crabgrass, Large",[8]; [16],40
same,"Plant response rating, Crabgrass, Large",[8]; [17],80
same,"Plant response rating, Morningglory",[9]; [14],90
same,"Plant response rating, Morningglory",[9]; [15],100
same,"Plant response rating, Morningglory",[9]; [16],40
same,"Plant response rating, Morningglory",[9]; [17],70
same,"Plant response rating, Pigweed",[10]; [14],90
same,"Plant response rating, Pigweed",[10]; [15],100
same,"Plant response rating, Pigweed",[10]; [16],80
same,"Plant response rating, Pigweed",[10]; [17],90
CCn1c(-c2cccc(C)c2)ncc(C(=O)C2=C(O)CCCC2=O)c1=O [Compound 115],"Plant response rating, Flood, Barnyardgrass",[1],65
same,"Plant response rating, Barnyardgrass",[1]; [11],50
same,"Plant response rating, Flood, Rice",rice (Oryza sativa),20
same,"Plant response rating, Rice",rice (Oryza sativa); [11],20
same,"Plant response rating, Flood, Sedge, Umbrella",[2],90
same,"Plant response rating, Sedge, Umbrella",[2]; [11],70
same,"Plant response rating, Flood, Ducksalad",[3],85
same,"Plant response rating, Ducksalad",[3]; [11],85
same,"Plant response rating, Corn",corn (Zea mays); [14],0
same,"Plant response rating, Corn",corn (Zea mays); [15],20
same,"Plant response rating, Corn",corn (Zea mays); [16],0
same,"Plant response rating, Corn",corn (Zea mays); [17],0
same,"Plant response rating, Velvetleaf",[4]; [14],100
same,"Plant response rating, Velvetleaf",[4]; [15],100
same,"Plant response rating, Velvetleaf",[4]; [16],60
same,"Plant response rating, Velvetleaf",[4]; [17],90
same,"Plant response rating, Foxtail, Giant",[5]; [14],50
same,"Plant response rating, Foxtail, Giant",[5]; [15],80
same,"Plant response rating, Foxtail, Giant",[5]; [16],20
same,"Plant response rating, Foxtail, Giant",[5]; [17],70
same,"Plant response rating, Barnyardgrass",[6]; [14],70
same,"Plant response rating, Barnyardgrass",[6]; [15],90
same,"Plant response rating, Barnyardgrass",[6]; [16],0
same,"Plant response rating, Barnyardgrass",[6]; [17],80
same,"Plant response rating, Wheat",[7]; [14],0
same,"Plant response rating, Wheat",[7]; [15],0
same,"Plant response rating, Wheat",[7]; [16],0
same,"Plant response rating, Wheat",[7]; [17],0
same,"Plant response rating, Crabgrass, Large",[8]; [14],60
same,"Plant response rating, Crabgrass, Large",[8]; [15],90
same,"Plant response rating, Crabgrass, Large",[8]; [16],20
same,"Plant response rating, Crabgrass, Large",[8]; [17],80
same,"Plant response rating, Morningglory",[9]; [14],90
same,"Plant response rating, Morningglory",[9]; [15],100
same,"Plant response rating, Morningglory",[9]; [16],60
same,"Plant response rating, Morningglory",[9]; [17],80
same,"Plant response rating, Pigweed",[10]; [14],100
same,"Plant response rating, Pigweed",[10]; [15],100
same,"Plant response rating, Pigweed",[10]; [16],70
same,"Plant response rating, Pigweed",[10]; [17],100
CCCCn1c(-c2cccc(C)c2)ncc(C(=O)C2=C(O)CCCC2=O)c1=O [Compound 116],"Plant response rating, Flood, Barnyardgrass",[1],75
same,"Plant response rating, Barnyardgrass",[1]; [11],65
same,"Plant response rating, Flood, Rice",rice (Oryza sativa),0
same,"Plant response rating, Rice",rice (Oryza sativa); [11],0
same,"Plant response rating, Flood, Sedge, Umbrella",[2],90
same,"Plant response rating, Sedge, Umbrella",[2]; [11],75
same,"Plant response rating, Flood, Ducksalad",[3],85
same,"Plant response rating, Ducksalad",[3]; [11],80
same,"Plant response rating, Corn",corn (Zea mays); [14],0
same,"Plant response rating, Corn",corn (Zea mays); [15],10
same,"Plant response rating, Corn",corn (Zea mays); [16],0
same,"Plant response rating, Corn",corn (Zea mays); [17],0
same,"Plant response rating, Velvetleaf",[4]; [14],70
same,"Plant response rating, Velvetleaf",[4]; [15],100
same,"Plant response rating, Velvetleaf",[4]; [16],30
same,"Plant response rating, Velvetleaf",[4]; [17],60
same,"Plant response rating, Foxtail, Giant",[5]; [14],60
same,"Plant response rating, Foxtail, Giant",[5]; [15],90
same,"Plant response rating, Foxtail, Giant",[5]; [16],10
same,"Plant response rating, Foxtail, Giant",[5]; [17],60
same,"Plant response rating, Barnyardgrass",[6]; [14],80
same,"Plant response rating, Barnyardgrass",[6]; [15],100
same,"Plant response rating, Barnyardgrass",[6]; [16],10
same,"Plant response rating, Barnyardgrass",[6]; [17],70
same,"Plant response rating, Wheat",[7]; [14],0
same,"Plant response rating, Wheat",[7]; [15],0
same,"Plant response rating, Wheat",[7]; [16],0
same,"Plant response rating, Wheat",[7]; [17],0
same,"Plant response rating, Crabgrass, Large",[8]; [14],60
same,"Plant response rating, Crabgrass, Large",[8]; [15],80
same,"Plant response rating, Crabgrass, Large",[8]; [16],30
same,"Plant response rating, Crabgrass, Large",[8]; [17],70
same,"Plant response rating, Morningglory",[9]; [14],100
same,"Plant response rating, Morningglory",[9]; [15],100
same,"Plant response rating, Morningglory",[9]; [16],0
same,"Plant response rating, Morningglory",[9]; [17],40
same,"Plant response rating, Pigweed",[10]; [14],100
same,"Plant response rating, Pigweed",[10]; [15],100
same,"Plant response rating, Pigweed",[10]; [16],60
same,"Plant response rating, Pigweed",[10]; [17],100
